Laboratory results: ChEMBL document CHEMBL3045912, “Prediction of fungicidal activities of rice blast disease based on least-squares support vector machines and project pursuit regression” (2008)

tested on: Pyricularia grisea; assay: Fungicidal activity against Magnaporthe grisea in rice seedlings assessed as area of infection on leaves treated 24 hr prior to spore inoculation measured 5 days after the fungal challenge; assay type: functional

| Compound | log(%) |
| --- | --- |
| CCc1ccc(NC(=O)Cc2cs/c(=N/c3ccc([N+](=O)[O-])cc3OC)n2C)cc1 | 1.81 |
| Cn1c(CC(=O)Nc2ccc(Cl)cc2)cs/c1=N/c1ccc(-c2ccccc2)cc1 | 1.98 |
| CC(C)Oc1ccc(/N=c2/scc(CC(=O)Nc3ccc(C(F)F)cc3)n2C)cc1 | 1.7 |
| Cn1c(CC(=O)Nc2ccc(OC(F)(F)F)cc2)cs/c1=N\c1cccc(C(F)(F)F)c1 | 1.7 |
| Cn1c(CC(=O)Nc2ccc(Br)cc2)cs/c1=N\c1cccc(F)c1 | 1.9 |
| COc1ccc(/N=c2\scc(CC(=O)Nc3ccc(C(F)F)cc3)n2C)cc1 | 1.4 |
| CCCCc1ccc(NC(=O)Cc2cs/c(=N\c3cccc(F)c3)n2C)cc1 | 1 |
| Cn1c(CC(=O)Nc2ccc(OC(F)(F)F)cc2)cs/c1=N\c1cccc(Br)c1 | 1.7 |
| CCc1ccc(NC(=O)Cc2cs/c(=N\c3ccc(Br)cc3F)n2C)cc1 | 2 |
| COc1ccc(NC(=O)Cc2cs/c(=N/c3ccc([N+](=O)[O-])cc3)n2C)cc1 | 2 |
| CCCCCCc1ccc(/N=c2/scc(CC(=O)Nc3ccc(CC)cc3)n2C)cc1 | 2 |
| CCOc1ccc(NC(=O)Cc2cs/c(=N\c3ccc(F)cc3F)n2C)cc1 | 1.9 |
| COc1ccc(NC(=O)Cc2cs/c(=N\c3ccc(Cl)c(C(F)(F)F)c3)n2C)cc1 | 2 |
| COc1ccc(NC(=O)Cc2cs/c(=N\c3cccc(C(F)(F)F)c3)n2C)cc1 | 2 |
| COc1ccc(NC(=O)Cc2cs/c(=N\c3ccccc3C(C)C)n2C)cc1 | 1.9 |
| COc1ccc(/N=c2/scc(CC(=O)Nc3ccc(OC(F)(F)F)cc3)n2C)cc1 | 1.4 |

| Compound | log(%) |
| --- | --- |
| CCCCOc1ccc(NC(=O)Cc2cs/c(=N/c3ccc(C(F)(F)F)cc3)n2C)cc1 | 1 |
| Cn1c(CC(=O)Nc2ccc(Oc3ccccc3)cc2)cs/c1=N/c1ccc(Oc2ccccc2)cc1 | 1.4 |
| COc1ccccc1/N=c1\scc(CC(=O)Nc2ccc(OC(F)(F)F)cc2)n1C | 0.7 |
| Cn1c(CC(=O)Nc2ccc(C(F)F)cc2)cs/c1=N\c1ccc(Br)cc1 | 1.4 |
| Cn1c(CC(=O)Nc2ccc([N+](=O)[O-])cc2)cs/c1=N/c1ccc(C#N)cc1 | 0.7 |
| CCc1ccc(NC(=O)Cc2cs/c(=N/c3ccc(CC#N)cc3)n2C)cc1 | 2 |
| CCc1ccc(NC(=O)Cc2cs/c(=N/c3ccc(C(C)=O)cc3)n2C)cc1 | 2 |
| Cn1c(CC(=O)Nc2ccc([N+](=O)[O-])cc2)cs/c1=N/c1ccc(F)cc1 | 0.9 |
| CCc1ccc(NC(=O)Cc2cs/c(=N\c3ccc(OC)cc3C)n2C)cc1 | 2 |
| CC(C)c1ccc(NC(=O)Cc2cs/c(=N/c3ccc(C(F)(F)F)cc3)n2C)cc1 | 1.8 |
| CCc1ccc(NC(=O)Cc2cs/c(=N/c3ccc(Cl)cc3)n2C)cc1 | 2 |
| CCc1ccc(NC(=O)Cc2cs/c(=N\c3ccc(C)cc3Cl)n2C)cc1 | 2 |
| CCCCc1ccc(NC(=O)Cc2cs/c(=N\c3ccc(F)c(Cl)c3)n2C)cc1 | 1.3 |
| Cn1c(CC(=O)Nc2ccc(OC(F)(F)F)cc2)cs/c1=N\c1ccc(F)cc1 | 0.9 |
| Cn1c(CC(=O)Nc2ccc(Oc3ccccc3)cc2)cs/c1=N\c1cccc(Br)c1 | 0.9 |
| CCCCOc1ccc(NC(=O)Cc2cs/c(=N\c3cccc(F)c3)n2C)cc1 | 1 |
